Test results from patent US20110028566A1, “COMPOSITIONS AND PRODUCTS CONTAINING CYCLOALIPHATIC DIOL ANTIMICROBIAL AGENTS AND METHODS OF USING THE COMPOSITIONS AND PRODUCTS” (EASTMAN CHEMICAL COMPANY, priority 2009, published 2011).
“And” between values parts separate entries of the source, which are not always exact repeats. Equal values may be shown once.

What was measured:
Aspergillus niger = experiment: Test for adequate preservation in skin cream formulation (microorganism counts); format: cell-based; conditions: skin cream emulsion pH 6.75; concentration in label
Experimental: A test for adequate preservation was carried out in accordance with the European Pharmacopea (6.0) and United States Pharmacopea (5.1). The testing consisted of the inoculation of a skin cream formulation serving as an emulsion substrate. The skin cream formulation having a pH of 6.75 was as follows: […]
This skin cream was the emulsion substrate, which formed the base for all further experimentation.
For Examples 3.1 through 3.10, 390.0 g cream were weighed into a 600-ml beaker. The cream was stirred at room temperature while adding the ingredients specified in Table 51. Each sample was stirred for 2 hours, then placed in the refrigerator until inoculated.
For Examples 3.11 and 3.12, 179.4 g cream were weighed into a 400-ml beaker. The cream was stirred at room temperature while adding the specified ingredients.
The samples of Examples 3.1 through 3.10 were challenged with specific organisms (see Table 51) to produce a contamination of between 1.0×10^5 cfu/g and 1.0×10^6 cfu/g. The actual inoculation counts resulting from these challenges were immediately determined by diluting in sterile buffered water and (spread plate method) plating for enumeration.
Challenge organisms were prepared in Mueller-Hinton broth, allowed to grow for 72 hours at 35° C.+/−2° C., centrifuged at 2500 rpm for 5 minutes, and the supernatant broth was removed. The microbial pellet was then re-diluted with sterile buffered water to a turbidity that matched previous 1.0×10^8 cfu/g concentrations of that organism's specific growth curve.
The test emulsions were maintained within a specific temperature range optimal for the organisms; 35° C.+/2° C. for the bacteria and 22° C.+/−2° C. for the fungi, for the first three days. They were kept at ambient room temperature for the subsequent time periods.
Subculture samples of approximately 1 gram were taken for counts at 7, 14, and 30 days and incubated under optimal conditions and nutrition for no less than 5 days. Subcultures were diluted 1:2, 1:10, 1:100, . . . , 1:10,000 and plated using the spread plate method onto Plate Count Agar and onto SAB Dextrose Agar for the Candida and Aspergillus species; and incubated as follows: 35° C.+/−2° C. for the Plate Count Agar and 22° C.+/−2° C. for the SAB Dextrose plates of Candida albicans and Aspergillus niger. Negative results were not reported before 7 days incubation, and counts were performed after no less than 5 days incubation. Because of the high viscosity of the test emulsion, at least a 1:2 dilution was required to perform the spread plate subcultures. 0-30 counts represent a 1 to 2 dilution, numbers […] a 1:10 dilution; and the rest represent dilutions of 1:100, 1:1000, or 1:10,000. […]

[1] = system: Candida albicans ATCC 10231; experiment: MIC determination and synergy testing (Kull synergy index), microplate; format: cell-based; design: QA/a: unit not given beside the values; conditions: for QA, MIC of CHDM alone / QA/a: concentration of CHDM alone (QA, MIC): C. albicans; for QA/a: concentration of CHDM alone (QA, MIC): Table 46
Experimental: The test cultures are listed in Table 7 along with the incubation temperatures used for growth and minimum inhibitory concentration (MIC) testing. […] C. albicans was cultured in Sabouraud dextrose broth (SDB) for approximately 44-52 hours for preparation of inoculum. A. niger was cultured on Sabouraud dextrose agar (SDA) for 3-4 days until there was confluent growth and visible spore formation. Spores were harvested from the SDA plates by flooding the surface of the plate with 5-10 mL of phosphate-buffered saline (PBS) and gently spreading the liquid across the surface of the plate with a sterile T-shaped plastic spreader (Copan Diagnostics) until there was a well-mixed suspension of spores. The resulting spore suspension was collected using a serological pipette and stored at 2-8° C. until use.
Inoculum concentration was determined by dilution plating of the cultures or spore suspension. A serial dilution in PBS was made to 10^−8 for the bacterial cultures or 10^−5 for the fungal cultures. Fifty or 100 μL of the final dilution was spread on two Trypticase-soy agar (TSA) plates for bacteria or two SDA plates for fungi. After 24 to 48 hours plates were counted and the concentrations used in each experiment were calculated.
The antimicrobial agents tested for synergy along with the respective diluents and working stock solution concentrations are shown below. For determination of MIC ranges, individual antimicrobial agent stock solutions were added to sterile medium to yield the highest level test concentrations, and then serially diluted in the medium to prepare the range of test concentrations. For synergy testing individual test concentrations were prepared in sterile medium, and then blended to form the desired combinations.
MICs were determined using a high-throughput microplate method. Individual antimicrobial agents were added to TSB (pH 7.3) for bacterial testing or SDB (pH 5.6) for fungal testing at the highest concentration to be tested. A serial dilution series was prepared at a dilution ratio of 1:1.3333 such that a one log range was covered in nine dilutions. Two-hundred microliters of the diluted antimicrobial agents were dispensed into four wells each of a sterile, 96-well, flat-bottom microplate (Nalge Nunc International). Four additional wells of the highest concentration were dispensed to serve as uninoculated high-level controls. Eight additional wells containing only broth medium were also prepared, four to serve as negative controls and four as positive controls. Three wells of each antimicrobial agent dilution were inoculated with one of the test strains in Table 7. The final well of each antimicrobial agent dilution was left uninoculated to serve as a control (and means of compensating) for any absorbance/turbidity due to the test compounds.
Microplates were inoculated using the cultures or spore suspensions prepared as described above. The S. aureus cultures were used undiluted, while the E. coli and P. aeruginosa cultures were used either undiluted or after a 1:2 dilution in sterile TSB. The C. albicans cultures were used either undiluted or following a 2-fold concentration by centrifugation. One of two means of inoculation was used to deliver a final concentration of approximately 10^5 colony-forming units (CFU)/mL of C. albicans, 10^5 spores/mL of A. niger, or 10^6 CFU/mL of bacteria. The primary method used a stainless steel pin replicator (Nalge Nunc International) mounted on a hand-operated bench-top press (Schmidt Technology Corporation) fitted with a custom-built microplate holder to dispense one microliter of each inoculum from a “master” plate containing 50-100 μL of culture into the wells of the test plate. The pin replicator was sterilized before and between inoculations by immersing in ethanol and flaming. The alternative method of inoculation was by directly pipetting 20 μL of a 1:20 dilution of each culture or spore suspension into the appropriate wells of the test plates.

For OCC1CCC(CO)CC1 (centres unmarked) [1,4-CHDM, 1,4-cyclohexanedimethanol], the “Antimicrobial activity against Aspergillus niger in skin cream (in words)” value (Aspergillus niger) was “significant activity”, the “QA, MIC of CHDM alone” value ([1]; day 2 of incubation, plate 128B (MP series)) was 3.00 weight percent and the “QA, MIC of CHDM alone” value ([1]; day 2 of incubation, plates 116B, 240B, 252B (PE series)) was 5.85 weight percent and 6.67 weight percent and 3.56 weight percent. The “QA, MIC of CHDM alone” value ([1]; day 2 of incubation, plates 117B, 226B, 254B (CG series)) was 5.63 weight percent and 5.00 weight percent and 3.56 weight percent, the “QA, MIC of CHDM alone” value ([1]; day 3 of incubation, plate 128B (MP series)) was 4.00 weight percent and the “QA, MIC of CHDM alone” value ([1]; day 3 of incubation, plates 116B, 240B, 252B (PE series)) was 4.75 weight percent and 5.85 weight percent and 6.67 weight percent. For the same compound, the “QA, MIC of CHDM alone” value ([1]; day 3 of incubation, plates 117B, 254B (CG series)) was 4.75 weight percent and 6.67 weight percent, the QA/a ([1]; CHDM alone (QA) or in combination with BA:DHA (a), plate 131B, day 3) was 5.33 and the QA/a ([1]; CHDM alone (QA) or in combination with BA:DHA (a), plate 131B, day 4) was 5.33. The QA/a ([1]; CHDM alone (QA) or in combination with BA:DHA (a), plate 239B, day 2) was 5.85, the QA/a ([1]; CHDM alone (QA) or in combination with BA:DHA (a), plate 239B, day 3) was 5.85 and the QA/a ([1]; CHDM alone (QA) or in combination with BA:DHA (a), plate 258B, day 2) was 5.00. It also gave a QA/a ([1]; CHDM alone (QA) or in combination with BA:DHA (a), plate 258B, day 3) of 6.67, a QA/a ([1]; CHDM alone (QA) or in combination with DMDM hydantoin (a), plate 241B, day 2) of 5.85 and a QA/a ([1]; CHDM alone (QA) or in combination with DMDM hydantoin (a), plate 241B, day 3) of 5.85. For the same compound, the QA/a ([1]; CHDM alone (QA) or in combination with DMDM hydantoin (a), plate 244B, day 2) was 6.00, the QA/a ([1]; CHDM alone (QA) or in combination with DMDM hydantoin (a), plate 244B, day 3) was 8.00 and the QA/a ([1]; CHDM alone (QA) or in combination with DMDM hydantoin (a), plate 263B, day 2) was 8.00. The QA/a ([1]; CHDM alone (QA) or in combination with DMDM hydantoin (a), plate 263B, day 3) was 8.00, the QA/a ([1]; CHDM alone (QA) or in combination with DMDM hydantoin (a), plate 264B, day 2) was 6.67 and the QA/a ([1]; CHDM alone (QA) or in combination with DMDM hydantoin (a), plate 264B, day 3) was 6.67. The QA/a ([1]; CHDM: MIC alone (QA) or conc. in combination with CP (a), plate 130B, day 2) was 3.00, the QA/a ([1]; CHDM: MIC alone (QA) or conc. in combination with CP (a), plate 130B, day 3) was 4.00 and the QA/a ([1]; CHDM: MIC alone (QA) or conc. in combination with CP (a), plate 227B, day 2) was 5.63. For the same compound, the QA/a ([1]; CHDM: MIC alone (QA) or conc. in combination with CP (a), plate 227B, day 3) was 5.63, the QA/a ([1]; CHDM: MIC alone (QA) or conc. in combination with CP (a), plate 256B, day 2) was 6.67 and the QA/a ([1]; CHDM: MIC alone (QA) or conc. in combination with CP (a), plate 256B, day 3) was 6.67. The QA/a ([1]; CHDM: MIC alone (QA) or conc. in combination with MIT (a), plate 162B, day 3) was 5.33, the QA/a ([1]; CHDM: MIC alone (QA) or conc. in combination with MIT (a), plate 200B, day 2) was 6.23 and the QA/a ([1]; CHDM: MIC alone (QA) or conc. in combination with MIT (a), plate 200B, day 3) was 6.23. For the same compound, the “QA/a: concentration of CHDM alone (QA, MIC)” value ([1]; Day 2) was 4.00 weight percent and 3.38 weight percent and the “QA/a: concentration of CHDM alone (QA, MIC)” value ([1]; Day 3) was 4.50 weight percent.
